Structures are written as SMILES.

The subject of the assay is LS513 KRAS G12V (colon). Kind of assay: MTT assay. It counts as cell-based. The note with it: Homo sapiens, LS-513, 72 h, Table 4; 3 days incubation; read-out: MTT assay IC50 KRAS mutant (Colon) LS513 KRAS G12V. Summed up:
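Cells were seeded at line-dependent density and stabilised overnight at 37 °C, then exposed to compounds for 3 days at 37 °C. MTT was then added for 2 h and the formazan dissolved in DMSO.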
On the technique in general: Formazan colour is commonly taken as a measure of viable cells.

For the compound `O=C(Nc1cc(Nc2ncccc2-c2ncnc3[nH]cnc23)ccc1Cl)c1cc(C(F)(F)F)cc(C(F)(F)F)c1` [Example 124, N-5-[(3-(9H-purin-6-yl)pyridin-2-yl)amino]-2-chlorophenyl-3,5-bis(trifluoromethyl)benzamide], the IC50 was determined as 0.888 µM.
As for `CSc1cccc(C(=O)Nc2cc(Nc3ncccc3-c3ncnc4[nH]cnc34)ccc2F)c1` [Example 125, N-5-[(3-(9H-purin-6-yl)pyridin-2-yl)amino]-2-fluorophenyl-3-(methylthio)benzamide], the figure is 0.767 µM; as for `CS(=O)(=O)c1cccc(C(=O)Nc2cc(Nc3ncccc3-c3ncnc4[nH]cnc34)ccc2F)c1` [Example 126, N-5-[(3-(9H-purin-6-yl)pyridin-2-yl)amino]-2-fluorophenyl-3-(methylsulfonyl)benzamide], 1.11 µM.
Consider `CC(C)(C#N)c1cc(F)cc(C(=O)Nc2cc(Nc3ncccc3-c3ncnc4[nH]cnc34)ccc2Cl)c1` [Example 127, N-5-[(3-(9H-purin-6-yl)pyridin-2-yl)amino]-2-chlorophenyl-3-(2-cyanopropan-2-yl)-5-fluorobenzamide], for which the IC50 was found to be 0.591 µM.
Turning to `O=C(Nc1cc(Nc2ncccc2-c2ncnc3[nH]cnc23)ccc1F)c1ccc(C(F)(F)F)cc1C(F)(F)F` [Example 128, N-5-[(3-(9H-purin-6-yl)pyridin-2-yl)amino]-2-fluorophenyl-2,4-bis(trifluoromethyl)benzamide], the IC50 stood at 1.21 µM.
With `O=C(Nc1cc(Nc2ncccc2-c2ncnc3[nH]cnc23)ccc1F)c1ccc(C(F)(F)F)c(C(F)(F)F)c1` [Example 129, N-5-[(3-(9H-purin-6-yl)pyridin-2-yl)amino]-2-fluorophenyl-3,4-bis(trifluoromethyl)benzamide], the IC50 turned out to be 0.652 µM.
Turning to `O=C(Nc1cc(Nc2ncccc2-c2ncnc3[nH]cnc23)ccc1F)c1cc(C(F)(F)F)ccc1C(F)(F)F` [Example 130, N-5-[(3-(9H-purin-6-yl)pyridin-2-yl)amino]-2-fluorophenyl-2,5-bis(trifluoromethyl)benzamide], the 50% inhibitory concentration (IC50) is 1.05 µM.
Regarding `O=C(Nc1cc(Nc2ncccc2-c2ncnc3[nH]cnc23)ccc1F)c1cccc(OC(F)(F)F)c1` [Example 131, N-5-[(3-(9H-purin-6-yl)pyridin-2-yl)amino]-2-fluorophenyl-3-(trifluoromethoxy)benzamide], the IC50 was 0.102 µM.
Turning to `COc1cc(OC)cc(C(=O)Nc2cc(Nc3ncccc3-c3ncnc4[nH]cnc34)ccc2F)c1` [Example 132, N-5-[(3-(9H-purin-6-yl)pyridin-2-yl)amino]-2-fluorophenyl-3,5-dimethoxybenzamide], the IC50 amounted to 0.585 µM.
For `O=C(Nc1cc(Nc2ncccc2-c2ncnc3[nH]cnc23)ccc1F)c1ccc(C(F)(F)F)c(F)c1` [Example 133, N-5-[(3-(9H-purin-6-yl)pyridin-2-yl)amino]-2-fluorophenyl-3-fluoro-4-(trifluoromethyl)benzamide], the IC50 came to 5.6 µM.
As for `COc1ccc(C(=O)Nc2cc(Nc3ncccc3-c3ncnc4[nH]cnc34)ccc2F)cc1C(F)(F)F` [Example 134, N-5-[(3-(9H-purin-6-yl)pyridin-2-yl)amino]-2-fluorophenyl-4-methoxy-3-(trifluoromethyl)benzamide], the figure is 0.072 µM; as for `O=C(Nc1cc(Nc2ncccc2-c2ncnc3[nH]cnc23)ccc1F)c1cccc(C(F)(F)F)n1` [Example 136, N-5-[(3-(9H-purin-6-yl)pyridin-2-yl)amino]-2-fluorophenyl-6-(trifluoromethyl) picolinamide], 2.3 µM; as for `Cc1cc(C(=O)Nc2cc(Nc3ncccc3-c3ncnc4[nH]cnc34)ccc2F)ccc1F` [Example 137, N-5-[(3-(9H-purin-6-yl)pyridin-2-yl)amino]-2-fluorophenyl-4-fluoro-3-methylbenzamide], 1.06 µM.
Take `Cc1ccc(C(=O)Nc2cc(Nc3ncccc3-c3ncnc4[nH]cnc34)ccc2F)cc1C(F)(F)F` [Example 138, N-5-[(3-(9H-purin-6-yl)pyridin-2-yl)amino]-2-fluorophenyl-4-methyl-3-(trifluoromethyl)benzamide]: the IC50 was 0.403 µM.
Regarding `COc1cc(OC(F)(F)F)cc(C(=O)Nc2cc(Nc3ncccc3-c3ncnc4[nH]cnc34)ccc2F)c1` [Example 140, N-5-[(3-(9H-purin-6-yl)pyridin-2-yl)amino]-2-fluorophenyl-3-methoxy-5-(trifluoromethoxy)benzamide], the IC50 was determined as 0.294 µM.
As for `O=C(Nc1cc(Nc2ncccc2-c2ncnc3[nH]cnc23)ccc1F)c1cccc(C2CC2)c1` [Example 141, N-5-[(3-(9H-purin-6-yl)pyridin-2-yl)amino]-2-fluorophenyl-3-cyclopropylbenzamide], the IC50 amounted to 0.445 µM.
As for `O=C(Nc1cc(Nc2ncccc2-c2ncnc3[nH]cnc23)ccc1F)c1cc(Cl)cc(OC(F)(F)F)c1` [Example 142, N-5-[(3-(9H-purin-6-yl)pyridin-2-yl)amino]-2-fluorophenyl-3-chloro-5-(trifluoromethoxy)benzamide], the figure is 0.128 µM; as for `O=C(Nc1cc(Nc2ncccc2-c2ncnc3[nH]cnc23)ccc1F)c1ccc(F)c(OC(F)(F)F)c1` [Example 143, N-5-[(3-(9H-purin-6-yl)pyridin-2-yl)amino]-2-fluorophenyl-4-fluoro-3-(trifluoromethoxy)benzamide], 0.559 µM.
For the compound `O=C(Nc1cc(Nc2ncccc2-c2ncnc3[nH]cnc23)ccc1F)c1cc(C(F)(F)F)ccn1` [Example 144, N-5-[(3-(9H-purin-6-yl)pyridin-2-yl)amino]-2-fluorophenyl-4-(trifluoromethyl) picolinamide], the IC50 was found to be 0.444 µM.
Then `Cc1cccc(C(=O)Nc2cc(Nc3ncccc3-c3ncnc4[nH]cnc34)ccc2F)c1` [Example 145, N-5-[(3-(9H-purin-6-yl)pyridin-2-yl)amino]-2-fluorophenyl-3-methylbenzamide], with 1.03 µM.
As for `O=C(Nc1cc(Nc2ncccc2-c2ncnc3[nH]cnc23)ccc1F)c1cccc(Cl)c1` [Example 146, N-5-[(3-(9H-purin-6-yl)pyridin-2-yl)amino]-2-fluorophenyl-3-chlorobenzamide], the IC50 amounted to 1.71 µM.
As for `O=C(Nc1cc(Nc2ncccc2-c2ncnc3[nH]cnc23)ccc1F)c1ccc(Cl)c(OC(F)(F)F)c1` [Example 147, N-5-[(3-(9H-purin-6-yl)pyridin-2-yl)amino]-2-fluorophenyl-4-chloro-3-(trifluoromethoxy)benzamide], the IC50 stood at 0.502 µM.
As for `O=C(Nc1cc(Nc2ncccc2-c2ncnc3[nH]cnc23)ccc1F)c1ccnc(C(F)(F)F)c1F` [Example 148, N-5-[(3-(9H-purin-6-yl)pyridin-2-yl)amino]-2-fluorophenyl-3-fluoro-2-(trifluoromethyl)isonicotinamide], the figure is 0.529 µM.
As for `O=C(Nc1cc(Nc2ncccc2-c2ncnc3[nH]cnc23)ccc1F)c1cncc(C(F)(F)F)c1` [Example 149, N-5-[(3-(9H-purin-6-yl)pyridin-2-yl)amino]-2-fluorophenyl-5-(trifluoromethyl)nicotinamide], the figure is 0.89 µM; as for `COc1ccc(C(=O)Nc2cc(Nc3ncccc3-c3ncnc4[nH]cnc34)ccc2F)cc1OC(F)(F)F` [Example 150, N-5-[(3-(9H-purin-6-yl)pyridin-2-yl)amino]-2-fluorophenyl-4-methoxy-3-(trifluoromethoxy)benzamide], 0.25 µM.
Take `O=C(Nc1cc(Nc2ncccc2-c2ncnc3[nH]cnc23)ccc1F)c1ccnc(C(F)(F)F)c1` [Example 151, N-5-[(3-(9H-purin-6-yl)pyridin-2-yl)amino]-2-fluorophenyl-2-(trifluoromethyl)isonicotinamide]: the IC50 is 0.35 µM.
As for `COc1ccc(NC(=O)c2cccc(C(C)(C)C#N)c2)cc1Nc1ncccc1-c1ncnc2[nH]cnc12` [Example 152, N-3-[(3-(9H-purin-6-yl)pyridin-2-yl)amino]-4-methoxyphenyl-3-(2-cyanopropan-2-yl)benzamide], the figure is 2.96 µM; as for `Cc1ccc(NC(=O)c2cccc(C(C)(C)C#N)c2)cc1Nc1ncccc1-c1ncnc2[nH]cnc12` [Example 153, N-3-[(3-(9H-purin-6-yl)pyridin-2-yl)amino]-4-methylphenyl-3-(2-cyanopropan-2-yl)benzamide], 0.447 µM.
Take `Cc1cc(C(=O)Nc2cc(Nc3ncccc3-c3ncnc4[nH]cnc34)ccc2F)cc(C(C)(C)C#N)c1` [Example 155, N-5-[(3-(9H-purin-6-yl)pyridin-2-yl)amino]-2-fluorophenyl-3-(2-cyanopropan-2-yl)-5-methylbenzamide]: the IC50 was 0.145 µM.
As for `COc1cc(C(=O)Nc2cc(Nc3ncccc3-c3ncnc4[nH]cnc34)ccc2F)c(Br)c(C(C)(C)C#N)c1` [Example 156, N-5-[(3-(9H-purin-6-yl)pyridin-2-yl)amino]-2-fluorophenyl-2-bromo-3-(2-cyanopropan-2-yl)-5-methoxybenzamide], the figure is 0.517 µM; as for `N#Cc1cc(C(=O)Nc2cc(Nc3ncccc3-c3ncnc4[nH]cnc34)ccc2F)cc(C(F)(F)F)c1` [Example 157, N-5-[(3-(9H-purin-6-yl)pyridin-2-yl)amino]-2-fluorophenyl-3-cyano-5-(trifluoromethyl)benzamide], 0.464 µM; as for `O=C(Nc1cc(Nc2ncccc2-c2ncnc3[nH]cnc23)ccc1F)c1cc(Br)cc(C(F)(F)F)c1` [Example 158, N-5-[(3-(9H-purin-6-yl)pyridin-2-yl)amino]-2-fluorophenyl-3-bromo-5-(trifluoromethyl)benzamide], 0.283 µM.

As a reminder, the IC50 is the concentration that inhibits the measured activity by half.

The values above are taken from patent US10844062B2, “Pyridine derivative inhibiting RAF kinase and vascular endothelial growth factor receptor, method for preparing same, pharmaceutical composition containing same, and use thereof” (SAMJIN PHARMACEUTICAL CO., LTD., priority 2016, dated 2020).
